Legend:
[1] = biological target: hypoxanthine phosphoribosyltransferase (Trypanosoma cruzi); experiment: Kinetic inhibition constant of compound with Trypanosoma cruzi Hypoxanthine Phosphoribosyltransferase (HPRT)
[2] = biological target: hypoxanthine phosphoribosyltransferase (Salmonella typhimurium); experiment: Kinetic inhibition constant of compound with bacterial Hypoxanthine Phosphoribosyltransferase (HPRT)

Structure (SMILES)	Ki [1]	Ki [2]
Fc1cc2c3ccccc3ccc2c2ccccc12 [6-Fluoro-chrysene]	2.8 µM	
Nc1cc2c3ccccc3ccc2c2ccccc12 [Chrysen-6-ylamine]	0.6 µM	
O=[N+]([O-])c1cc2c3ccccc3ccc2c2ccccc12 [6-Nitro-chrysene]	6.7 µM	
O=C(Nc1cc2c3ccccc3ccc2c2ccccc12)C(Cl)Cl [2,2-Dichloro-N-chrysen-6-yl-acetamide]	0.5 µM	> 25 µM
